The text below walks through data of patent publication US20040044304A1, “Local drug delivery using photosensitizer-mediated and electromagnetic radiation enhanced vascular permeability” (priority 2002, published 2004).

Data set [1] concerns blood vessels and tissue within region of irradiation. Kind of data set: Quantitation of FITC-Dextran or TRITC-Dextran fluorescence in blood vessels and tissue (method of Brunner et al.). Format: in vivo, mice of strain C3H. The settings on record: for Fluorecence intensity, Tissue, Baseline / Fluorecence intensity, Vessel, Baseline: prior to photodynamic treatment and probe. Here is the method: At varying time points following the photodynamic activation of MRV6401 or SnET2, a total volume of 0.1 ml of either FITC-Dextran or TRITC-Dextran (obtained from Sigma Scientific, PO Box 14508, St. Louis, Mo., 63178, USA) was administered via the i.v. tail vein route. […] No. FD-2000s) or of molecular weight 150 kD (Sigma Cat. No. FD-150s), and the TRITC-Dextran solution was of molecular weight 155 kD (Sigma Cat. No. T1287). Prior to use, the dextrans were suspended in sterile 5% dextrose in water to a final concentration of 5% weight:volume. In all cases, a total volume of 0.1 ml of the […] solution was administered. The time of administration and the molecular weight of the various dextrans that were injected were as described in Table 6. In some animals the vascular permeability was determined 1-60 minutes following the completion of light irradiation using a dextran probe labeled with either FITC or TRITC, which was then followed 24 hours later by determination using a probe labeled with the other (opposite) fluorescent molecule. That is, if FITC was used immediately following irradiation, TRITC was used 24 hours later, and vice versa. To visualize the fluorescence emitted from the FITC-Dextrans, the Leitz Ploemopak L2 cube (Cat. No. 513-420, E. Leitz Inc., Rockleigh, N.J., 07647, USA) was used. This filter cube was fitted with a BP 450-490 (450 nm-490 nm band pass) excitation filter, the RKP 510 long pass dichroic mirror and a BP 525/20 (525±10 nm) band pass barrier filter. To visualize the fluorescence emitted from the TRITC-Dextrans, the Leitz Ploemopak N2 cube (Cat. No. 513-609, E. Leitz Inc., Rockleigh, N.J., 07647, USA) was used. This filter cube was fitted with a BP 530-560 (530 nm-560 nm band pass) excitation filter, the RKP 580 long pass dichroic mirror and the LP 580 (580 nm long pass) barrier filter. The spectral characteristics of the filters in the L2 and N2 cubes were such that in animals that were injected with both FITC- and TRITC-Dextran (see Table 6), there was no fluorescence “bleed-through” from the other fluorophore. That is, when visualizing TRITC-Dextran there was no fluorescent signal from FITC-Dextran that was present in the field. Similarly, when visualizing FITC-Dextran, there was no fluorescent signal from TRITC-Dextran that was present in the field. The quantitation of the level of either FITC-Dextran or TRITC-Dextran fluorescence in various regions of the chambers was undertaken using a minor modification of a previously described method [J. Brunner, F. Krummenaeur and H -A Lehr, “Quantification of video-taped images in microcirculation research using inexpensive imaging software” (Adobe Photoshop), Microcirculation, Vol. 7, pp 103-107, 2000]. In the studies described by Brunner et al., the imaging software utilized to quantitate the levels of fluorescence intensity in defined regions of interest within the window chamber was Adobe Photoshop. The software utilized for the studies described below was Image-Pro Plus (Media Cybernetics, 8484 Georgia Avenue, Silver Spring, Md. 20910, USA). In all other respects, the analysis undertaken below was the same as that described by Brunner et al. The level of fluorescence that was determined in both intra-vascular and extra-vascular regions using this method was directly proportional to the amount of the fluorescent labeled dextran in that region (Brunner et al., 2000).

The nature of data set [2]: Molar extinction coefficient of the photosensitizer. The note with it: for Peak extinction coefficient: in M-1 cm-1 (unit assumed). On the set-up: Molar extinction coefficient: unit not given here. It is filed as physicochemical.
Where [3] appears, read: 155 kD TRITC-Dextran, SnET2 0.75 mg/kg i.v., green 530 nm-560 nm 225 J/cm^2, time after TRITC-Dextran administration, region of irradiation, 0.75 mg/kg.
Setting [4] is: Animal #12, 2,000 kD FITC-Dextran, MRV6401 0.05 mg/kg i.v., red 660 nm-680 nm 8 J/cm^2.
Setting [5] is: Animal #12, 2,000 kD FITC-Dextran, MRV6401 0.05 mg/kg i.v., red 660 nm-680 nm 8 J/cm^2, time after Dextran administration.
[6] abbreviates: Animal #13, 155 kD TRITC-Dextran, MRV6401 0.05 mg/kg i.v., red 660 nm-680 nm 8 J/cm^2.
Setting [7] is: Animal #13, 155 kD TRITC-Dextran, MRV6401 0.05 mg/kg i.v., red 660 nm-680 nm 8 J/cm^2, time after Dextran administration.

Several values for one entry are separate records, joined by “and”; a condition that tells them apart may be missing. Identical values can stand only once. Marks after values point to notes of the source that are not given here.

Take `CCOC(=O)C1=Cc2c3nc(cc4nc(cc5[n-]c(cc6[n-]c2c(C)c6CC)c(C)c5CC)C(C)=C4CC)[C@@H](C)[C@]13CC.[Cl-].[Cl-].[Sn]` (racemic) [SnET2, tin ethyl etiopurpurin]: the “Fluorecence intensity, Tissue, Baseline” value in data set [1] (155 kD TRITC-Dextran, SnET2 0.75 mg/kg i.v., green 530 nm-560 nm 225 J/cm^2, mean ± 1 SD of three readings, 0.75 mg/kg) was 30.5 ± 1.4 and 26.5 ± 0.2. For the same molecule, in data set [1] (setting [3]), the “Fluorecence intensity, Tissue, 8 min” value is 82.9 ± 1.9 and 73 ± 2.0; the “Fluorecence intensity, Tissue, 20 min” value is 110 ± 2.4 and 120 ± 4.4; the “Fluorecence intensity, Tissue, 1 hr” value is 175.4 ± 3.3 and 127.9 ± 5.5; the “Fluorecence intensity, Tissue, 24 hr” value was 196.4 ± 4.2 and 155 ± 7.1. Moreover, in data set [1] (setting [3]), the “Fluorecence intensity, Vessel, 8 min” value was 72 ± 1.7 and 105 ± 3.1; the “Fluorecence intensity, Vessel, 20 min” value was 90.6 ± 5.8 and 111 ± 2.7; the “Fluorecence intensity, Vessel, 1 hr” value was 97.7 ± 6.2 and 134 ± 10; the “Fluorecence intensity, Vessel, 24 hr” value was 55 ± 3.1 and 78 ± 1.5. In addition, the Peak extinction coefficient in data set [2] (at 437 nm) is 165,456. In addition, in data set [2] (at 661 nm), the Peak extinction coefficient was 52,552. Besides, the “Absorbance at activation wavelength relative to peak spectral absorbance” value in data set [2] (green 530 nm-560 nm) is recorded as “less than 5%”. In addition, the Molar extinction coefficient in data set [2] (green wavelength band 530 nm-560 nm) came out at 4312.
Consider `C=Cc1c(C)c2[n]3c1=CC1=NC(=Cc4c(C)c5c([n]4[In]3[Cl])C(=C3N=C(C=2)[C@@H](C)[C@@H]3CCC(=O)OC)CC5=O)C(CC)=C1C` [MV6401, indium methyl pyropheophorbide], for which, in data set [1] (setting [4]), the “Fluorecence intensity, Tissue, Baseline” value amounted to 50 ± 1.8 and the “Fluorecence intensity, Vessel, Baseline” value was 50 ± 1.6^c. Besides, in data set [1] (setting [5]), the “Fluorecence intensity, Tissue, 10 min” value came out at 91.9 ± 4.4; the “Fluorecence intensity, Tissue, 1 hr” value was 121.1 ± 2.2; the “Fluorecence intensity, Tissue, 24 hr” value amounted to 135 ± 6.6; the “Fluorecence intensity, Vessel, 10 min” value worked out at 79.1 ± 1.95. Further, in data set [1] (setting [5]), the “Fluorecence intensity, Vessel, 1 hr” value is on record as 83.5 ± 1.9 and the “Fluorecence intensity, Vessel, 24 hr” value worked out at 78.9 ± 2.0. For the same molecule, in data set [1] (setting [6]), the “Fluorecence intensity, Tissue, Baseline” value amounted to 59.5 ± 1.87 and the “Fluorecence intensity, Vessel, Baseline” value came to 56.6 ± 1.24. Moreover, in data set [1] (setting [7]), the “Fluorecence intensity, Tissue, 10 min” value came to 119.7 ± 1.96; the “Fluorecence intensity, Tissue, 1 hr” value came out at 122.9 ± 2.6; the “Fluorecence intensity, Tissue, 24 hr” value was found to be 156 ± 1.49; the “Fluorecence intensity, Vessel, 10 min” value worked out at 182.9 ± 2.6. In data set [1] (setting [7]), the “Fluorecence intensity, Vessel, 1 hr” value amounted to 168.7 ± 2.5 and the “Fluorecence intensity, Vessel, 24 hr” value is reported as 46 ± 1.4.
